One block for each compound: values may come before it. Where a SMILES comes first, the peptide text is derived from it. Bridges are numbered along the chain shown (N, C = ends). [ ]: non-standard residue; d: D form. R8 = C=CCCCCCC[C@@](C)(N)C(=O)O; S5 = C=CCCC[C@](C)(N)C(=O)O
How the values were obtained:
[1] = cited from earlier work
[2] = tested on: MDMX; assay: MDMX expression in AML cells; conditions: mRNA and protein levels
[3] = tested on: MDMX; conditions: cited from earlier work
[4] = tested on: Kasumi-1 (p53 R248Q mutant)
[5] = tested on: SJSA-1 cells; assay: p21 protein ELISA in SJSA-1 cells; assay type: cell-based, human; conditions: 21 hours after treatment, n = 2
[6] = tested on: U2OS p21-MS2 cells; assay: Live-cell imaging of p21-MS2 transcription sites; conditions: 5 μM, 4 hours after addition; 54 treated cells; untreated 16%
[7] = tested on: primary AML cells; assay: Viability, CFC and apoptosis of primary AML patient cells; assay type: cell-based, human; conditions: AML n = 4 compared to healthy controls n = 3
[8] = tested on: HL60 (p53 null); assay: Proliferation and apoptosis in HL60; assay type: cell-based, human
[9] = tested on: MOLM13 cells; assay: MOLM13 AML xenograft in NSG mice; assay type: in vivo, mouse; conditions: for median survival: vehicle 34
[10] = clinical trials; cited from earlier work
[11] = tested on: p53 WT AML cells (primary AML cells, MOLM13); assay: p53 pathway activation; assay type: cell-based, human
[12] = tested on: p53 WT AML cell lines; assay: Cell cycle; assay type: cell-based, human
[13] = tested on: p53 WT AML cell lines (MOLM13, MOLM14, ML2, OCI/AML3, OCI/AML5); assay: Proliferation by trypan blue exclusion, p53 WT AML cell lines; assay type: cell-based, human
[14] = tested on: patient's MDS/AML cells; assay: In vitro treatment of the MDS/AML patient's cells; assay type: cell-based, human
[15] = tested on: ML2 cells; assay: ML2 AML xenograft in mice; assay type: in vivo, mouse; conditions: vehicle 28.5
[16] = tested on: leukemia cell lines with WT p53; assay: Cytotoxicity assay in leukemia cell lines with WT p53; conditions: five cell lines with WT p53; table S2
[17] = tested on: healthy hematopoietic cells; assay: Effects on healthy hematopoiesis in non-tumor-bearing C57/BL6 mice; assay type: in vivo, mouse; conditions: 20 mg/kg TIW for 4 weeks
[18] = tested on: circulating CD34+ leukemic blasts; assay: Compassionate-use treatment of one MDS/AML patient; assay type: in vivo, human
[19] = tested on: MOLM13 p53 shRNA knockdown cell lines; assay: Proliferation and apoptosis in isogenic p53 shRNA MOLM13 cell lines; assay type: cell-based, human; conditions: n = 3
[20] = tested on: AML cell lines; assay: Colony-forming capacity and serial replating of AML cell lines
[21] = tested on: SJSA-1 cells; assay: Caspase-Glo 3/7 assay in SJSA-1 cells; assay type: cell-based, human; conditions: Caspase-Glo 3/7, 48 hours after treatment; n = 2
[22] = target: MDM2 (Homo sapiens, UniProt Q00987); assay: Binding assay on immobilized protein surface; conditions: n = 2
[23] = target: T1, MDMX (Homo sapiens, UniProt O15151); assay: Binding assay on immobilized protein surface; conditions: n = 2
T1 sequence (O15151 1-490): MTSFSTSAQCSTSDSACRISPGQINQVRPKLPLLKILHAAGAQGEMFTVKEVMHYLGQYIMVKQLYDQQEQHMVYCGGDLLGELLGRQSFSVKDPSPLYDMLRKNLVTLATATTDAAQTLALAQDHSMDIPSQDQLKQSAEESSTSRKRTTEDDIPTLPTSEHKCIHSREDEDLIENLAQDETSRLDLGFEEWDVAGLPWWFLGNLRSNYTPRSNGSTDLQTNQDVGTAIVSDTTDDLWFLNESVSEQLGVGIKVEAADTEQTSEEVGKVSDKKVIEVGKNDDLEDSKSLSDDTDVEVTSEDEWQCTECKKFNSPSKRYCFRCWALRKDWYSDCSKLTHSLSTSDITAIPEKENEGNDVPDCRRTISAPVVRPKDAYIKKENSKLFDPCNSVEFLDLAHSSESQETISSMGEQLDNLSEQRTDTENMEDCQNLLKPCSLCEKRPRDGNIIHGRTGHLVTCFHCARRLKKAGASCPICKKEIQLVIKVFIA

MDM2, sequence (Q00987 whole entry): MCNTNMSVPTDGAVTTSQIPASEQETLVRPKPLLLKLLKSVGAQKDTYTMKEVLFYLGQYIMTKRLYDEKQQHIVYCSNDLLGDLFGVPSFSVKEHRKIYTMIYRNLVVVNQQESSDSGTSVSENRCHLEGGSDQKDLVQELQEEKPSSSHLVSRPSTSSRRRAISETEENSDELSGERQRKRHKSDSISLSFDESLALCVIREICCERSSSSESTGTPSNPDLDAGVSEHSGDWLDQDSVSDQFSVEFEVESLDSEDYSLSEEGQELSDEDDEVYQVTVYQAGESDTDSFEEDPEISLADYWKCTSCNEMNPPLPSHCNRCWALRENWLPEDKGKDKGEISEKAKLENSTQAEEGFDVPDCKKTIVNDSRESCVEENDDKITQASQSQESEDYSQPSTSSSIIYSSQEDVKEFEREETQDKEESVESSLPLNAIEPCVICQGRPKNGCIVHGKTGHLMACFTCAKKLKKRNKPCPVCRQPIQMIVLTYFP

Compound: COc1ccc(C2=N[C@@H](c3ccc(Cl)cc3)[C@@H](c3ccc(Cl)cc3)N2C(=O)N2CCNC(=O)C2)c(OC(C)C)c1 [Nutlin-3]
bioavailability [1]: poor bioavailability

Compound: CN1CCN(c2ccc([N+](=O)[O-])c3no[n+]([O-])c23)CC1 [NSC-207895]
expression of MDMX [2]: downregulated expression of MDMX

Compound: CCOc1cc(C(C)(C)C)ccc1C1=N[C@@](C)(c2ccc(Cl)cc2)[C@@](C)(c2ccc(Cl)cc2)N1C(=O)N1CCN(CCCS(C)(=O)=O)CC1 [RG7112]
affinity for MDMX [3]: lack of affinity for MDMX

Compound: CC(=O)N[C@@H](CC(C)C)C(=O)N[C@H](C(=O)N[C@@H](Cc1ccccc1)C(=O)N[C@]1(C)CCCCCC/C=C\CCC[C@@](C)(C(=O)N[C@@H](C)C(=O)N[C@@H](C)C(=O)N[C@@H](C)C(=O)N[C@@H](C)C(=O)N[C@@H](C)C(=O)N[C@H](C)C(N)=O)NC(=O)[C@H](CC(C)C)NC(=O)[C@H](CCC(N)=O)NC(=O)[C@H](C)NC(=O)[C@H](Cc2c[nH]c3ccccc23)NC(=O)[C@H](Cc2ccc(O)cc2)NC(=O)[C@H](CCC(=O)O)NC1=O)[C@@H](C)O [ALRN-6924] (Ac-LTF[R8]EYWAQL[S5]AAAAA[dA]-NH2; staple (Z) 4-11; N-terminus and C-terminus assumed)
cell proliferation [4]: no effect on cell proliferation | p21 protein [5]: concentration- dependent increase | proportion of cells harboring an active TS [6]: ~ 44% | CFC of primary AML PBMCs [7]: inhibited CFC | cell proliferation ([8]; HL60 (p53 null)): no effect on cell proliferation | apoptosis ([8]; HL60, doses between 5 and 10 μM): did not observe a significant increase in apoptosis | median survival ([9]; 20 mg/kg IV BIW (group 2)): 83 days | mice alive 300 days after treatment ([9]; 20 mg/kg IV TIW (group 3)): 40% | median survival ([9]; 20 mg/kg IV TIW (group 3)): 151 days | average engraftment of human CD45 leukemic cells ([9]; 20 mg/kg, after 5 weeks of treatment, mouse BM, FACS, vehicle 23.3%): 0.00557% | increase of median survival compared to the control ([9]; 8 or 12 mg/kg IV BIW): 5.5 days | human CD45 leukemic cells in the BM ([9]; 8 or 12 mg/kg IV BIW, day 7 after the start of treatment): dose-dependent decrease in human CD45 leukemic cells | grade 3/4 thrombocytopenias [10]: no reported grade 3/4 thrombocytopenias | p53 target gene expression (qRT-PCR) ([11]; MOLM13, 24 hours of treatment, n = 3): up-regulated CDKN1A, MDM2, BAX, PUMA, and GADD45a in a dose-dependent manner | p53, p21 and MDM2 protein ([11]; Western blot, primary AML cells and AML cell lines expressing WT p53, not in p53 null AML cells): stabilized p53 and up-regulated its downstream targets p21 and MDM2 in p53 WT cells in a dose-dependent manner | apoptosis ([12]; annexin V/DAPI, 24 hours, all five AML cell lines, n = 3): dose-dependent increase in apoptosis | cell cycle ([12]; propidium iodide staining, all p53 WT AML cell lines): induced cell cycle arrest | sensitivity of OCI/AML3 ([13]; OCI/AML3, suspension culture): less sensitive | cellular proliferation ([13]; trypan blue exclusion, dose- and time-dependent, n = 3): inhibited cellular proliferation | AML-inhibitory effect versus RG7388 ([14]; 10 μM each): greater AML-inhibitory effect than RG7388 | cell proliferation and clonogenic capacity of the patient's MDS/AML cells ([14]; 10 μM in liquid culture, CFC 10 days): inhibited cell proliferation and clonogenic capacity | average median survival ([15]; 20 mg/kg IV BIW): 38 days | average median survival ([15]; 20 mg/kg IV TIW): 72 days | cytotoxic activity [16]: potent activity against all five cell lines with WT p53 | frequency of HSCs and progenitors versus control [17]: no significant differences | thrombocytopenia (platelet counts) ([17]; n = 10): did not show signs of thrombocytopenia | neutrophils ([17]; n = 10, within the normal range): only a modest reduction in neutrophils | thrombocytopenia on treatment ([18]; 3.1 mg/kg IV once weekly, one patient): no grade 3 or 4 thrombocytopenia was observed | circulating CD34+ leukemic blasts ([18]; 3.1 mg/kg IV once weekly, weeks 2 and 3): less than 1% | circulating CD34+ leukemic blasts ([18]; 3.1 mg/kg IV once weekly, within 12 hours, initially 5 to 7%): 1.5 to 2.5% | p53 protein (intracellular FACS) ([18]; 3.1 mg/kg IV, first administration): rapidly induced in CD34^+ leukemic blasts, but not in healthy lymphocytes | p53 dependency of growth inhibition and apoptosis [19]: completely p53-dependent manner | colony-forming capacity (CFC) ([20]; 0.5 pM (so in the source), methylcellulose, 10 days, n = 3): abrogated the colony-forming capacity | serial replating capacity ([20]; 0.5 μM, three of the five AML cell lines): completely abrogated serial replating capacity | potency in CFC and serial replating assays versus comparators ([20]; AML cell lines): increased potency over RG7388 and all other p53- stapled peptide prototypes tested | inhibition of clonogenicity versus RG7388 ([20]; all five AML cell lines): greater inhibition of clonogenicity compared to RG7388 | caspase-3/7 activity [21]: concentration- dependent increase

wash-off t1/2 from MDM2-coated surface [22]: 2 to 3 min | binding to MDMX [23]: did not bind to MDMX at all
Compound: COc1cc(C(=O)O)ccc1NC(=O)[C@@H]1N[C@@H](CC(C)(C)C)[C@](C#N)(c2ccc(Cl)cc2F)[C@H]1c1cccc(Cl)c1F [RG7388]
affinity for MDMX [3]: lack of affinity for MDMX

— paper PMC6130841 (Science translational medicine, 2018)
